US20240110183A1, “ANTIFIBROTIC AND ANTITUMOR ACTIVITY OF CD63 BLOCKADE” (The Board of Trustees of the Leland Stanford Junior …, priority 2020, published 2024)

Test system: HK2, NRK52E, NRK49F cell lines
Test: RT-qPCR analysis of kidney cell lines treated with TGFβ1
Assay type: cell-based, human, rat
Settings: TGFβ1 10 ng/ml, FIG. 21
Description: FIG. 21A-FIG. 21C. Activation of TGFβ1 signaling pathway elevated the expression of fibrotic related proteins in 3 kidney cell lines. (FIG. 21 FIG. 21A) Human epithelial (HK2), (FIG. 21 B) rat epithelial (NRK52E), (FIG. 21C) rat fibroblast (NRK49F) cell lines were treated with TGFβ1 (10 ng/ml) or TGFβ1 (10 ng/ml) plus LY2109761 (2.5 μM) for indicated times in hours.
Activation of TGFβ1 signaling pathway elevated the expression of fibrotic related proteins in 3 kidney cell lines. Human epithelial (HK2), rat epithelial (NRK52E), rat fibroblast (NRK49F) cell lines were treated with TGFβ1 (10 ng/ml) or TGFβ1 (10 ng/ml) plus LY2109761 (2.5 μM) for times indicated in hours as shown in FIG. 21 A-C.

Substance: TGFβ1: TGFβ1 (10 ng/ml) used to activate the TGFβ1 signaling pathway in kidney cell lines
- expression of CD63 and its known interactor TIMP1 (HK2, NRK52E, NRK49F): not increased
- expression of fibrotic related proteins (human epithelial (HK2), rat epithelial (NRK52E), rat fibroblast (NRK49F)): elevated
